Experimental data from patent publication EP0043274A2, “Antithrombotic treatment” (priority 1980, dated 1982).
Several values for one entry are separate records, joined by “and”; a condition that tells them apart may be missing. Identical values can stand only once.

What was measured:
[1] = tested on: platelet thrombus formation on damaged aortic wall; test: Indium 111 platelet labeling technique in rabbits (platelet accumulation at vessel wall); type: in vivo
Protocol: In medicine, for example, arterial thrombosis is diagnosable by clinical manifestations, by arteriography, and recently, by an Indium 111 platelet labeling technique (see, for example, the article entitled "Differential , Effects of Two Doses of Aspirin on Platelet-Vessel Wall Interaction In Vivo" by K.K. Wu et al being published in the Journal of Clinical Investigtion, August, 1981).
Sodium bisulfite is evaluated under in vivo conditions as an antithrombotic agent using the anti-indium 111 platelet labeling technique in rabbits (see the Wu et al article above cited). The material was administered by intravenous injection (72.80 milligram per kilogram of animal body weight). […]

[2] = biological target: T1, FIBRINOGEN (Homo sapiens, UniProt P02671+P02675+P02679); test: Coagulation factor assay (Biggs): fibrinogen; type: biochemical; conditions: for FIBRINOGEN (mg%): U.S.P. grade, control 218
T1 construct: from tissue; host or cells: human plasma
T1 sequence (P02671 20-629 limits assumed): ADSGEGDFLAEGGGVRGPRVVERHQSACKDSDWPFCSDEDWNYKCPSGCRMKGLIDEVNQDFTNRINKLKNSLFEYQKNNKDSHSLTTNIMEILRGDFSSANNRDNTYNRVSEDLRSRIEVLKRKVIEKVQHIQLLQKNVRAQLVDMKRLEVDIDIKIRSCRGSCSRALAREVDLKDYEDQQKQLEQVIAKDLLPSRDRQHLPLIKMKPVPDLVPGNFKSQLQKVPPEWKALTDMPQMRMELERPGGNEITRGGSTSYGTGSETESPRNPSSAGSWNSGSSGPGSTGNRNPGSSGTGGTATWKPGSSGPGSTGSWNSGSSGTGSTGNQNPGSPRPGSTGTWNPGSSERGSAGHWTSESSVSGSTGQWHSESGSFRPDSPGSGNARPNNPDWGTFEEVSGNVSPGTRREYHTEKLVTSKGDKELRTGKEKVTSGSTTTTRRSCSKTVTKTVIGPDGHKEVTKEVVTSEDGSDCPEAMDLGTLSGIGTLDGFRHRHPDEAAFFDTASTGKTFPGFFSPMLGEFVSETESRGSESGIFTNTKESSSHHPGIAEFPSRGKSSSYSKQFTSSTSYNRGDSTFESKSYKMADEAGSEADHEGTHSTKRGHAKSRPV
T1 sequence (P02675 31-491): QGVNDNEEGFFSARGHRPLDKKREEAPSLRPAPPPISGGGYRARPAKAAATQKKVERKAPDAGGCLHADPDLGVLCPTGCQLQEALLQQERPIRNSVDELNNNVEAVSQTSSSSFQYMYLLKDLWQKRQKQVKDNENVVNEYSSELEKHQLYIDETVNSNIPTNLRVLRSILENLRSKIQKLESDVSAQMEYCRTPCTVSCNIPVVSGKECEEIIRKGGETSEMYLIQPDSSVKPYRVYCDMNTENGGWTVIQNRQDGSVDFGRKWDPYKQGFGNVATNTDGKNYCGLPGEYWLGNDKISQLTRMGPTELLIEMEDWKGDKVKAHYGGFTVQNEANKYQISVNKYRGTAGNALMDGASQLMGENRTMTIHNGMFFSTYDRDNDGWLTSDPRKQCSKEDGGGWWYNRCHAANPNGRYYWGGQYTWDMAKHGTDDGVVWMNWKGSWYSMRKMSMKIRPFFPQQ
T1 sequence (P02679 27-453): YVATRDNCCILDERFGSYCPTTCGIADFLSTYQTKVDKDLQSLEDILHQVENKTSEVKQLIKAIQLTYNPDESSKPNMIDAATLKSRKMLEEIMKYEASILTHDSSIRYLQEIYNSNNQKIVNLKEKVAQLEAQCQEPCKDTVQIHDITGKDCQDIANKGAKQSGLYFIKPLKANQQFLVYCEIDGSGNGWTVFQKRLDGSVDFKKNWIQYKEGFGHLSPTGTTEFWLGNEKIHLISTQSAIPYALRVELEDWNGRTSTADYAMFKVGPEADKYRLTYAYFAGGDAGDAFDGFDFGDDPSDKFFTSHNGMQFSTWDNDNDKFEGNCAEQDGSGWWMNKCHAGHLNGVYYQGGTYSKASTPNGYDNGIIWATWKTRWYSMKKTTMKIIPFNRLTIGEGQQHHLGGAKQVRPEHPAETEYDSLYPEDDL
Protocol: (§1) The effect of U.S.P. grade sodium bisulfite on blood coagulation factors is evaluated by standard procedures (Biggs) and the results are shown in Table III below.
(§2) References for PT, PTT, and assays of all the coagulation factors can be found in a standard textbook, entitled "Human Blood Coagulation, Haemostasis and Thrombosis", edited by Rosemary Biggs, published by Blackwell Scientific Publications, Oxford, England (2nd edition), pages 670-705, 1976.

[3] = biological target: T2, PROTHROMBIN (Homo sapiens, UniProt P00734); test: Coagulation factor assay (Biggs): prothrombin (Factor II); type: biochemical; conditions: for PROTHROMBIN (%): U.S.P. grade, control 87
T2 construct: from tissue; host or cells: human plasma
Protocol: as §1, §2

[4] = biological target: T3, FACTOR V (Homo sapiens, UniProt P12259); test: Coagulation factor assay (Biggs): Factor V; type: biochemical; conditions: U.S.P. grade, control 75
T3 construct: from tissue; host or cells: human plasma
T3 sequence (P12259 29-2224): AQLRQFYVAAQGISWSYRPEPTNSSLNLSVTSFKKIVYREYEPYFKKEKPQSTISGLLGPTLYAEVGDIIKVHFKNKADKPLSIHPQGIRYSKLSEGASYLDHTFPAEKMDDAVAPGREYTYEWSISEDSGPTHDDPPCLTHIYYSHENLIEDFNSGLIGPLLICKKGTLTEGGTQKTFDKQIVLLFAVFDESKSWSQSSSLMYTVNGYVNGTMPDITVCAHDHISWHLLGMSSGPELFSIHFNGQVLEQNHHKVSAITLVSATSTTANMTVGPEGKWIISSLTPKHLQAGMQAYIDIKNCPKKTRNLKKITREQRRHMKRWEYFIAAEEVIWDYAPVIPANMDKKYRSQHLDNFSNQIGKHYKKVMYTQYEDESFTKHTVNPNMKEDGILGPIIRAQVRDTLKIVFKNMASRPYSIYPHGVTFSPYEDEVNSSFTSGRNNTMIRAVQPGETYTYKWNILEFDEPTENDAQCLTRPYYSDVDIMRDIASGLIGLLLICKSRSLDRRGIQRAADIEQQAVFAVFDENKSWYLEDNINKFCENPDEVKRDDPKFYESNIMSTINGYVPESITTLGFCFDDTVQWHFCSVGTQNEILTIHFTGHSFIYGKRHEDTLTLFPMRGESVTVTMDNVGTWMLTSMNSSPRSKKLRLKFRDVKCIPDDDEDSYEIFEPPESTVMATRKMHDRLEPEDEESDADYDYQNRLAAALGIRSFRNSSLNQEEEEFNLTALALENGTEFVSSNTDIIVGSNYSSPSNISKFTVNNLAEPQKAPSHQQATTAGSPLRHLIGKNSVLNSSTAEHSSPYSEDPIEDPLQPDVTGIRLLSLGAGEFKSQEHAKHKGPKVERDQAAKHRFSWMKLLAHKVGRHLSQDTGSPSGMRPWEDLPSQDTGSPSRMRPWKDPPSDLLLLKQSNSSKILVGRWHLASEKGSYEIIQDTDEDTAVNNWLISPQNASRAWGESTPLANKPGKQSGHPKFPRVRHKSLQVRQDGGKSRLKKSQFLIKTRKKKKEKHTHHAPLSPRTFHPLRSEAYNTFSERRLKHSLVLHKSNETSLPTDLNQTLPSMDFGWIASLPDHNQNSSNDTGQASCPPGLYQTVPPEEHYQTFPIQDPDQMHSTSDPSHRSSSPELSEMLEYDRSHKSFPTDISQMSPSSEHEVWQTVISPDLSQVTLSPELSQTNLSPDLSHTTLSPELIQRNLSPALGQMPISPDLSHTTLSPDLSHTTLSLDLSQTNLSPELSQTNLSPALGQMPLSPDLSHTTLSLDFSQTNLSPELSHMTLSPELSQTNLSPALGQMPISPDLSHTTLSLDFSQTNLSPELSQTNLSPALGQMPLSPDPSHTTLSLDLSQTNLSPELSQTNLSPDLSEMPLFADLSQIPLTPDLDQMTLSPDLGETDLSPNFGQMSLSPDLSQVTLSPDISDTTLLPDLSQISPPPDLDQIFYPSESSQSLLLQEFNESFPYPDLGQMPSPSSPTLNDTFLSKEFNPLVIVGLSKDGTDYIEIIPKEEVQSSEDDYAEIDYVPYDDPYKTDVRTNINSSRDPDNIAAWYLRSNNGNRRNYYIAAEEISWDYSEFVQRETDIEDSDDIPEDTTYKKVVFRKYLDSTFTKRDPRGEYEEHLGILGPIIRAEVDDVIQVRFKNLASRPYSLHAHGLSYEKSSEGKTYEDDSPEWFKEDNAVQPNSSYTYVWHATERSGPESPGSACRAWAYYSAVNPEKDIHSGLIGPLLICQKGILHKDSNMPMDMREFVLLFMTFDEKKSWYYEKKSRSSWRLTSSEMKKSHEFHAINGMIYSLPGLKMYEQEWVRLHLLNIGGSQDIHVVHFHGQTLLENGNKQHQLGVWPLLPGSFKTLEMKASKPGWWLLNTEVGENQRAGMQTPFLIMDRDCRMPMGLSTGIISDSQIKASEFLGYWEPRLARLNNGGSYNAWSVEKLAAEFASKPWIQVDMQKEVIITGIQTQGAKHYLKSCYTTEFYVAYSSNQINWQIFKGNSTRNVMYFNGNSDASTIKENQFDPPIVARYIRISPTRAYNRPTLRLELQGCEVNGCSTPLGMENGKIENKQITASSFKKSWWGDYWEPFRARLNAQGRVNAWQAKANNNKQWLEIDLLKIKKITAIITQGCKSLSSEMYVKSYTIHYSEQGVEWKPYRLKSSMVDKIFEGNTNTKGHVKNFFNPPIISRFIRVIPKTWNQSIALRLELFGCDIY
Protocol: as §1, §2

[5] = tested on: human plasma; test: Blood coagulation evaluation by standard procedures (Biggs), overall result; type: biochemical; conditions: 5 mg/ml
Protocol: as §1
When this procedure is repeated using human plasma,
References for PT, PTT, and assays in vitro of all the coagulation factors can be found in a standard textbook, entitled "Human Blod Coagulation, Haemostatis and Thrombosis", edited by Rosemary Biggs, published by Blackwell Scientific Publications, Oxford, England (2nd edition), pages 670-705, 1976.

[6] = tested on: RATS; test: Rats fed bait containing 0.5% sodium bisulfite; type: in vivo
Source text: Five rats, each in a separate cage, were given a bait containing 0.5 percent by weight of sodium bisulfite. The bait consisted of cracked grains (wheat, corn, millet, and corn meal). The amounts of bait eaten are summarized for an eleven day period.

[7] = tested on: blood; test: Storage of blood samples with added sodium bisulfite solution; set-up: species or system human; conditions: about 4 cc blood + about 10 drops of 10 weight percent solution; about 2 1/2 years at ambient temperatures
Protocol: Samples of about 4 cc each of blood were prepared. To each of these was added about 10 drops of a solution 10 weight percent and sodium bisulfite in distilled water. Each sample was then sealed into a glass vial.

Question: Which “mortality of another rabbit so tested” value ([1]; intervenous injection 127.39 mg/kg) does the source give for `CCN(CC)CC.O=S(O)O` [TRIETHYL AMINE BISULFITE, triethyl amine bisulfite] here?
Answer: died

Question: What about the “reduction in accumulation of platelet thrombus” value ([1]; intervenous injection 127.39 mg/kg, equivalent to 0.01 molar concentrations in blood) of the same molecule?
Answer: about 30%

Question: What about the “Fibrinogen (%)” value ([2]; mean of two experiments, control 205) of the same molecule?
Answer: 125%

Question: Which results are given for Sodium bisulfite?
Answer: reduces accumulation of platelet thrombus at the damaged vessel wall ([1]; intravenous injection 72.80 milligram per kilogram): The findings indicate that the active agent reduces accumulation of platelet thrombus at the damaged vessel wall by 70%.; Platelet Accumulation II. at normal vessel wall % ([1]; intravenous injection 72.80 milligram per kilogram, rabbits A and B, control 0.03± 0.02): 0.08%; Platelet Accumulation II. at normal vessel wall cpm/gm ([1]; intravenous injection 72.80 milligram per kilogram, rabbits A and B, control 72,140± 39,040): 98,611 cpm/gm and 83,066 cpm/gm; Platelet Accumulation I. at damaged vessel wall cpm/gm ([1]; intravenous injection 72.80 milligram per kilogram, rabbits A and B, count per minute per gram dry weight of tissue, control 1,167,820± 21,310): 133,986 cpm/gm and 146,630 cpm/gm; Platelet Accumulation I. at damaged vessel wall % ([1]; intravenous injection 72.80 milligram per kilogram, rabbits A and B, percentage of injected radioactivity per gram dry weight of tissue, control 0.44± 0.08): 0.11% and 0.15%; FIBRINOGEN (mg%) ([2]; 0.01 mg/ml): 222 mg%; FIBRINOGEN (mg%) ([2]; 0.05 mg/ml): 228 mg%; FIBRINOGEN (mg%) ([2]; 0.1 mg/ml): 217 mg%; FIBRINOGEN (mg%) ([2]; 0.5 mg/ml): 190 mg%; FIBRINOGEN (mg%) ([2]; 1.0 mg/ml): 185 mg%; FIBRINOGEN (mg%) ([2]; 5.0 mg/ml): 130 mg%; effect on Factor II [3]: mildly affected; PROTHROMBIN (%) ([3]; 0.01 mg/ml): 79%; PROTHROMBIN (%) ([3]; 0.05 mg/ml): 80%; PROTHROMBIN (%) ([3]; 0.1 mg/ml): 72%; PROTHROMBIN (%) ([3]; 0.5 mg/ml): 40%; PROTHROMBIN (%) ([3]; 1.0 mg/ml): 26%; PROTHROMBIN (%) ([3]; 5.0 mg/ml): 5%; FACTOR V (%) ([4]; 0.01 mg/ml): 74%; FACTOR V (%) ([4]; 0.05 mg/ml): 72%; FACTOR V (%) ([4]; 0.1 mg/ml): 80%; FACTOR V (%) ([4]; 0.5 mg/ml): 70%; FACTOR V (%) ([4]; 1.0 mg/ml): 60%; FACTOR V (%) ([4]; 5.0 mg/ml): 54%; coagulation of human plasma [5]: completely disrupted; mortality ([6]; 2 days, rats 1 and 4): DIED; FIRST DAY BLOOD FACTOR PT ([6]; rat 5): 27; FIRST DAY BLOOD FACTOR PT, increase ([6]; rats 1-3): 26% increase and 24% increase and 28% increase; coagulation of stored blood samples [7]: have not coagulated
